Assay results: ChEMBL document CHEMBL1201862, “PubChem BioAssay data set” (2004)
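Step 1: Grow cells in 96-well plates. Step 2: Expose to compound for 48 hours at 5 concentrations. Step 3: Interpolate endpoints linearly; if unreached, use highest concentration. GI50 marks 50% less growth.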 Activity calls are given as the source filed them. Rule as the data show it: active = GI50 up to about 1.1 µM and inactive = higher.

How the values were obtained:
Assay in all cases: inhibition of tumour cell growth, NCI panel, 48 h
CAKI-1 = test system: CAKI-1
TK-10 = test system: TK-10
NCI-H226 = test system: NCI-H226
M14 = test system: M14
ACHN = test system: ACHN
SW-620 = test system: SW-620
OVCAR-8 = test system: OVCAR-8
A549 = test system: A549
RPMI-8226 = test system: RPMI-8226
OVCAR-4 = test system: OVCAR-4
MOLT-4 = test system: MOLT-4
NCI-H522 = test system: NCI-H522
SK-MEL-28 = test system: SK-MEL-28
UACC-257 = test system: UACC-257
NCI-H460 = test system: NCI-H460
HT-29 = test system: HT-29
SNB-75 = test system: SNB-75
HCC 2998 = test system: HCC 2998
NCI/ADR-RES = test system: NCI/ADR-RES

Measured: GI50

CCN1CCN(c2ccc(Nc3ccnc4ccc5nn(C)nc5c34)cc2)CC1
inactive: CAKI-1 12.8 µM | TK-10 17.5 µM | NCI-H226 12.3 µM | M14 16.1 µM | ACHN 10.6 µM | SW-620 4.22 µM | OVCAR-8 9.71 µM | A549 13.8 µM | RPMI-8226 7.08 µM | OVCAR-4 11.9 µM | MOLT-4 4.5 µM | NCI-H522 11.1 µM | SK-MEL-28 16.6 µM | UACC-257 16.6 µM | NCI-H460 5.41 µM | HT-29 4.26 µM | SNB-75 13.2 µM | HCC 2998 13.2 µM

C/C(=N\NC(=S)NC(CCC(=O)O)C(=O)O)c1cnccn1 (centres undefined)
inactive: TK-10 > 100 µM | NCI-H226 > 100 µM | M14 > 100 µM | ACHN > 100 µM | SW-620 > 100 µM | OVCAR-8 > 100 µM | A549 > 100 µM | RPMI-8226 > 100 µM | OVCAR-4 > 100 µM | MOLT-4 > 100 µM | NCI-H522 > 100 µM | SK-MEL-28 > 100 µM | UACC-257 > 100 µM | NCI-H460 > 100 µM | HT-29 > 100 µM | SNB-75 > 100 µM | HCC 2998 > 100 µM

C=CCN1C(=O)C/C(=C2/CCC(=O)N2CC=C)C1=O
inactive: CAKI-1 > 100 µM | TK-10 > 100 µM | NCI-H226 > 100 µM | M14 > 100 µM | ACHN > 100 µM | SW-620 > 100 µM | OVCAR-8 > 100 µM | A549 > 100 µM | OVCAR-4 > 100 µM | MOLT-4 > 100 µM | NCI-H522 > 100 µM | SK-MEL-28 > 100 µM | UACC-257 > 100 µM | NCI-H460 > 100 µM | HT-29 > 100 µM | SNB-75 > 100 µM | HCC 2998 > 100 µM

CCOC(=O)/C(C(=O)c1ccccc1)=C1\N[C@H](C(=O)OCC)CS1
inactive: CAKI-1 > 100 µM | NCI-H226 > 100 µM | M14 > 100 µM | ACHN > 100 µM | SW-620 > 100 µM | OVCAR-8 > 100 µM | A549 > 100 µM | RPMI-8226 > 100 µM | OVCAR-4 > 100 µM | MOLT-4 > 100 µM | NCI-H522 > 100 µM | SK-MEL-28 > 100 µM | UACC-257 > 100 µM | NCI-H460 > 100 µM | HT-29 > 100 µM | SNB-75 > 100 µM | HCC 2998 > 100 µM

O=C1C2=C(SCCS2)C(=O)c2ccccc21
inactive: CAKI-1 1.9 µM | TK-10 1.84 µM | NCI-H226 2.08 µM | M14 1.87 µM | ACHN 1.66 µM | SW-620 2.11 µM | OVCAR-8 1.67 µM | A549 1.9 µM | RPMI-8226 1.79 µM | OVCAR-4 1.65 µM | MOLT-4 2.23 µM | NCI-H522 1.76 µM | SK-MEL-28 1.85 µM | UACC-257 1.95 µM | NCI-H460 1.83 µM | HT-29 2.18 µM | SNB-75 1.67 µM | HCC 2998 1.65 µM

Nn1c(CCCCCCCCc2nnc(COc3ccc(Cl)cc3)n2N)nnc1COc1ccc(Cl)cc1
inactive: CAKI-1 16.9 µM | NCI/ADR-RES > 100 µM | TK-10 78 µM | NCI-H226 > 100 µM | M14 > 100 µM | ACHN > 100 µM | SW-620 > 100 µM | A549 > 100 µM | RPMI-8226 > 100 µM | OVCAR-4 > 100 µM | MOLT-4 49.5 µM | NCI-H522 81.1 µM | SK-MEL-28 > 100 µM | UACC-257 > 100 µM | NCI-H460 > 100 µM | HT-29 > 100 µM | SNB-75 > 100 µM | HCC 2998 > 100 µM

COC1OC(OC)C2C(c3c(C)cc(C)cc3C)=NOC12 (centres undefined)
inactive: CAKI-1 > 100 µM | TK-10 > 100 µM | NCI-H226 > 100 µM | M14 > 100 µM | ACHN > 100 µM | SW-620 > 100 µM | OVCAR-8 > 100 µM | A549 > 100 µM | RPMI-8226 > 100 µM | OVCAR-4 > 100 µM | MOLT-4 > 100 µM | NCI-H522 > 100 µM | SK-MEL-28 > 100 µM | UACC-257 > 100 µM | NCI-H460 > 100 µM | HT-29 > 100 µM | SNB-75 > 100 µM | HCC 2998 > 100 µM

N#Cc1c(-c2ccccc2)cc(-c2ccc(N)cc2)[nH]c1=O
inactive: TK-10 > 100 µM | NCI-H226 > 100 µM | M14 > 100 µM | ACHN > 100 µM | SW-620 > 100 µM | OVCAR-8 > 100 µM | A549 > 100 µM | RPMI-8226 > 100 µM | OVCAR-4 > 100 µM | MOLT-4 > 100 µM | NCI-H522 > 100 µM | SK-MEL-28 > 100 µM | UACC-257 > 100 µM | NCI-H460 > 100 µM | HT-29 > 100 µM | SNB-75 25.2 µM | HCC 2998 > 100 µM

O=C1CCCC2=C1CC1=C(CCCC1=O)N2c1cccc2ccccc12
inactive: CAKI-1 > 100 µM | NCI/ADR-RES > 100 µM | TK-10 > 100 µM | NCI-H226 > 100 µM | M14 > 100 µM | ACHN > 100 µM | SW-620 > 100 µM | OVCAR-8 69.2 µM | A549 > 100 µM | RPMI-8226 > 100 µM | OVCAR-4 > 100 µM | MOLT-4 78 µM | SK-MEL-28 > 100 µM | NCI-H460 > 100 µM | HT-29 > 100 µM | SNB-75 29.1 µM | HCC 2998 > 100 µM

O=C1c2ccccc2OP(=O)(OCC(F)(F)F)OC1(C(F)(F)F)C(F)(F)F (centres undefined)
inactive: CAKI-1 > 100 µM | TK-10 > 100 µM | NCI-H226 > 100 µM | M14 > 100 µM | ACHN > 100 µM | SW-620 > 100 µM | OVCAR-8 > 100 µM | A549 > 100 µM | RPMI-8226 > 100 µM | OVCAR-4 > 100 µM | MOLT-4 > 100 µM | NCI-H522 > 100 µM | SK-MEL-28 > 100 µM | UACC-257 > 100 µM | NCI-H460 > 100 µM | HT-29 > 100 µM | SNB-75 > 100 µM | HCC 2998 > 100 µM

CC(=O)[C@@H]1C/C(=C\OCc2ccccc2)O[C@H]1C
inactive: CAKI-1 > 100 µM | NCI/ADR-RES > 100 µM | TK-10 > 100 µM | NCI-H226 > 100 µM | M14 > 100 µM | ACHN > 100 µM | SW-620 > 100 µM | OVCAR-8 > 100 µM | A549 > 100 µM | RPMI-8226 > 100 µM | OVCAR-4 > 100 µM | MOLT-4 > 100 µM | NCI-H522 > 100 µM | SK-MEL-28 > 100 µM | UACC-257 > 100 µM | NCI-H460 > 100 µM | HT-29 > 100 µM | SNB-75 > 100 µM

O=C(/C=C/c1ccc(-c2ccccc2)cc1)c1ccccc1
inactive: CAKI-1 38.7 µM | TK-10 22.1 µM | NCI-H226 22.1 µM | M14 31.1 µM | ACHN 31.6 µM | SW-620 20.7 µM | OVCAR-8 17.3 µM | A549 19.5 µM | RPMI-8226 19.5 µM | OVCAR-4 29.7 µM | MOLT-4 46.9 µM | NCI-H522 17.3 µM | SK-MEL-28 25.8 µM | UACC-257 32.4 µM | NCI-H460 20.6 µM | HT-29 21.9 µM | SNB-75 31 µM | HCC 2998 18.2 µM

CC1CC(c2ccc(Cl)cc2)=Nc2ccccc2S1 (centres undefined)
inactive: TK-10 > 100 µM | NCI-H226 > 100 µM | M14 > 100 µM | ACHN > 100 µM | SW-620 > 100 µM | OVCAR-8 > 100 µM | A549 > 100 µM | RPMI-8226 > 100 µM | OVCAR-4 > 100 µM | MOLT-4 > 100 µM | NCI-H522 > 100 µM | SK-MEL-28 > 100 µM | UACC-257 > 100 µM | NCI-H460 > 100 µM | HT-29 > 100 µM | SNB-75 > 100 µM | HCC 2998 > 100 µM

CCOC(=O)CCC(NC(=O)c1ccc(NC(OC)c2nc3cc(C(F)(F)F)ccc3nc2-c2ccccc2)cc1)C(=O)OCC (centres undefined)
inactive: CAKI-1 17.1 µM | TK-10 21 µM | NCI-H226 18.6 µM | M14 15.4 µM | ACHN 16.1 µM | SW-620 7.62 µM | OVCAR-8 10.3 µM | A549 18.5 µM | RPMI-8226 6.41 µM | OVCAR-4 21.5 µM | MOLT-4 2.67 µM | NCI-H522 12.3 µM | SK-MEL-28 17.3 µM | UACC-257 16.3 µM | NCI-H460 12.7 µM | HT-29 7.93 µM | SNB-75 19.9 µM | HCC 2998 15.8 µM

O=C1NC(=O)C2C(=O)NC(=O)C1C2(c1ccccc1)c1cc[nH]c1 (centres undefined)
inactive: CAKI-1 > 100 µM | TK-10 > 100 µM | NCI-H226 > 100 µM | M14 > 100 µM | ACHN > 100 µM | SW-620 > 100 µM | OVCAR-8 > 100 µM | A549 > 100 µM | RPMI-8226 > 100 µM | OVCAR-4 > 100 µM | MOLT-4 > 100 µM | NCI-H522 > 100 µM | SK-MEL-28 > 100 µM | UACC-257 > 100 µM | NCI-H460 > 100 µM | HT-29 > 100 µM | SNB-75 > 100 µM | HCC 2998 > 100 µM
